Results as given in patent US7781410B2 (priority 2006, dated 2010).

Test system: Sebocytes
Experiment: cells
Format: cell-based, human
Details: for % Reduction in Lipid Synthesis in Sebocytes [3 uM]: compound at 3 uM; for inhibition at 3 µM: Homo sapiens, read-out: % Reduction in Lipid Synthesis in Sebocytes [3 uM]; for % Cholera Toxin Reduction: Green Tea Extract 0.0 μg/mL

For `COc1cc(OC)c(C(=O)/C=C/c2ccc(O)cc2OC)c(OC)c1`, the “% Reduction in Lipid Synthesis in Sebocytes [3 uM]” value (“% Reduction in Lipid Synthesis” for short) was “Not Active”.

For `COc1cc(/C=C/C(=O)c2ccc(O)cc2C)cc(OC)c1OC`, the “% Reduction in Lipid Synthesis” value was “Not Active”.

In the case of `COc1ccc(/C=C/C(=O)c2ccc(O)cc2O)cc1OC`, the “% Reduction in Lipid Synthesis” value is reported as “Not Active”.

`O=C(/C=C/c1ccc(O)c(O)c1)c1c(O)cc(O)cc1O` was tested, and the “% Reduction in Lipid Synthesis” value was “Not Active”.

In the case of `COc1ccc(C(=O)/C=C/c2cccc(OC)c2OC)c(O)c1`, the “% Reduction in Lipid Synthesis” value is reported as “Not Active”.

With `COc1ccc(/C=C/C(=O)c2cc(OC)ccc2O)c(OC)c1` the “% Reduction in Lipid Synthesis” value was “Not Active”.

With `COc1ccc(/C=C/C(=O)c2c(O)cc(OC)cc2OC)cc1` the inhibition at 3 µM was 28.4%.

In the case of `COc1cc(OC)c(C(=O)/C=C/c2ccc(O)cc2)c(OC)c1`, the “% Reduction in Lipid Synthesis” value is reported as “Not Active”.

For `COc1cc(/C=C/C(=O)c2ccc(O)cc2O)ccc1O`, the “% Reduction in Lipid Synthesis” value was “Not Active”.

Compound `COc1cc(O)c(C(=O)/C=C/c2ccc(OC)c(O)c2)c(OC)c1` has an inhibition at 3 µM of 25.6%.

`O=C(/C=C/c1ccc(O)c(O)c1)c1ccc(O)cc1O` was tested, and the inhibition at 3 µM was 12.8%.

Work on `COc1cc(O)c(C(=O)/C=C/c2ccc(OC)c(OC)c2)c(O)c1` yielded an inhibition at 3 µM of 20.5%.

With `COc1ccc(/C=C/C(=O)c2c(O)cc(OC)c(OC)c2OC)c(OC)c1` the “% Reduction in Lipid Synthesis” value was “Not Active”.

For `COc1ccc(C(=O)/C=C/c2ccc(OC)cc2OC)c(O)c1`, the “% Reduction in Lipid Synthesis” value was “Not Active”.

In the case of `COc1cc(OC)c(C(=O)/C=C/c2ccc(OC)c(O)c2)c(OC)c1`, the “% Reduction in Lipid Synthesis” value is reported as “Not Active”.

In the case of `COc1c(/C=C/C(=O)c2ccc(O)cc2)ccc(O)c1O`, the “% Reduction in Lipid Synthesis” value is reported as “Not Active”.

`O=C(/C=C/c1ccccc1O)c1ccccc1O` [drawing 18] showed an inhibition at 3 µM of 47.3%.

In the case of `O=C1c2ccc(O)cc2OC1Cc1ccc(O)c(O)c1` (centres unmarked), the inhibition at 3 µM is reported as 26.9%.

`COc1cccc(/C=C/C(=O)c2ccc(O)cc2O)c1OC` was tested, and the “% Reduction in Lipid Synthesis” value was “Not Active”.

In the case of `COc1ccc(O)c(C(=O)/C=C/c2ccc(OC)c(OC)c2)c1`, the “% Reduction in Lipid Synthesis” value is reported as “Not Active”.

In the case of `COc1ccc(O)c(C(=O)/C=C/c2cccc(OC)c2OC)c1`, the inhibition at 3 µM is reported as 28.7%.

With `O=C(/C=C/c1ccccc1O)c1ccccc1O` [2,2′-dihydroxy-chalcone] the “% Cholera Toxin Reduction” value (2,2′-dihydroxychalcone 0.3 μM) was 14.3%, the “% Cholera Toxin Reduction” value (2,2′-dihydroxychalcone 1.0 μM) was 38.2% and the “% Cholera Toxin Reduction” value (2,2′-dihydroxychalcone 3.0 μM) was 50.8%.

In the case of `COc1cc(OC)c(C(=O)/C=C/c2ccc(OC)c(OC)c2)c(OC)c1`, the “% Reduction in Lipid Synthesis” value is reported as “Not Active”.

In the case of `COc1ccc(C(=O)/C=C/c2cc(OC)c(OC)c(OC)c2)c(O)c1`, the “% Reduction in Lipid Synthesis” value is reported as “Not Active”.

For `COc1ccc(C(=O)/C=C/c2ccc(OC)c(OC)c2)c(O)c1`, the inhibition at 3 µM was 12.4%.

For `O=C(/C=C/c1ccc(O)c(O)c1)c1ccc(OC2O[C@H](CO)C(O)[C@H](O)C2O)c(O)c1O` (some centres unmarked), the “% Reduction in Lipid Synthesis” value was “Not Active”.

With `COc1cc(O)c(C(=O)/C=C/c2ccc(O)c(OC)c2)c(OC)c1` the “% Reduction in Lipid Synthesis” value was “Not Active”.
